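The concentration for 50% growth inhibition is given as GI50. Definition used: TGI = concentration required for complete inhibition of growth.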
How the values were obtained:
Experiment in all cases: growth of human tumour cells (NCI), 384-well format
MDA-MB-468 breast = test system: MDA-MB-468 breast
SK-MEL-28 melanoma = test system: SK-MEL-28 melanoma
SNB-75 CNS = test system: SNB-75 CNS
MOLT-4 leukemia = test system: MOLT-4 leukemia
UACC-257 melanoma = test system: UACC-257 melanoma
OVCAR-4 ovarian = test system: OVCAR-4 ovarian
HOP-92 NSCLC = test system: HOP-92 NSCLC
A549 NSCLC = test system: A549 NSCLC
ACHN renal = test system: ACHN renal
MALME-3M melanoma = test system: MALME-3M melanoma
HOP-62 NSCLC = test system: HOP-62 NSCLC
A498 renal = test system: A498 renal
SF-268 CNS = test system: SF-268 CNS
SNB-19 CNS = test system: SNB-19 CNS
HCT-116 colon = test system: HCT-116 colon
NCI-H522 lung = test system: NCI-H522 lung
PC-3 prostate = test system: PC-3 prostate
SF-295 CNS = test system: SF-295 CNS
HT29 colon = test system: HT29 colon
CCRF-CEM leukemia = test system: CCRF-CEM leukemia
SW-620 colon = test system: SW-620 colon
M14 melanoma = test system: M14 melanoma
OVCAR-5 ovarian = test system: OVCAR-5 ovarian
LOX IMVI melanoma = test system: LOX IMVI melanoma
OVCAR-3 ovarian = test system: OVCAR-3 ovarian
COLO 205 colon = test system: COLO 205 colon
786-0 renal = test system: 786-0 renal
NCI-H226 lung = test system: NCI-H226 lung
DU-145 prostate = test system: DU-145 prostate

Cc1ccc(NC(=O)c2ccnc(C(F)(F)F)c2)cc1-c1cc(OCCO)nc(N2CCOCC2)c1
GI50 (MDA-MB-468 breast): 359 nM | TGI (MDA-MB-468 breast): 1270 nM | GI50 (SK-MEL-28 melanoma): 253 nM | TGI (SK-MEL-28 melanoma): 758 nM | GI50 (SNB-75 CNS): 1340 nM | TGI (SNB-75 CNS): 9720 nM | GI50 (MOLT-4 leukemia): 172 nM | TGI (MOLT-4 leukemia): 317 nM | GI50 (UACC-257 melanoma): 272 nM | TGI (UACC-257 melanoma): 1310 nM | GI50 (OVCAR-4 ovarian): 3870 nM | TGI (OVCAR-4 ovarian): 20000 nM | GI50 (HOP-92 NSCLC): 928 nM | TGI (HOP-92 NSCLC): 3490 nM | GI50 (A549 NSCLC): 591 nM | TGI (A549 NSCLC): 14500 nM | GI50 (ACHN renal): 787 nM | TGI (ACHN renal): 12300 nM | GI50 (MALME-3M melanoma): 85.6 nM | TGI (MALME-3M melanoma): 316 nM | GI50 (HOP-62 NSCLC): 1230 nM | TGI (HOP-62 NSCLC): 11500 nM | GI50 (A498 renal): 1200 nM | TGI (A498 renal): 7920 nM | GI50 (SF-268 CNS): 211 nM | TGI (SF-268 CNS): 532 nM | GI50 (SNB-19 CNS): 2380 nM | TGI (SNB-19 CNS): 18000 nM | GI50 (HCT-116 colon): 243 nM | TGI (HCT-116 colon): 2480 nM | GI50 (NCI-H522 lung): 274 nM | TGI (NCI-H522 lung): 755 nM | GI50 (PC-3 prostate): 750 nM | TGI (PC-3 prostate): 14200 nM | GI50 (SF-295 CNS): 569 nM | TGI (SF-295 CNS): 13900 nM | GI50 (HT29 colon): 306 nM | TGI (HT29 colon): 1990 nM | GI50 (CCRF-CEM leukemia): 385 nM | TGI (CCRF-CEM leukemia): 1460 nM | GI50 (SW-620 colon): 282 nM | TGI (SW-620 colon): 10500 nM | GI50 (M14 melanoma): 129 nM | TGI (M14 melanoma): 603 nM | GI50 (OVCAR-5 ovarian): 675 nM | TGI (OVCAR-5 ovarian): 8880 nM | GI50 (LOX IMVI melanoma): 171 nM | TGI (LOX IMVI melanoma): 1170 nM | GI50 (OVCAR-3 ovarian): 461 nM | TGI (OVCAR-3 ovarian): 1790 nM | GI50 (COLO 205 colon): 214 nM | TGI (COLO 205 colon): 1120 nM | GI50 (786-0 renal): 997 nM | TGI (786-0 renal): 11700 nM | GI50 (NCI-H226 lung): 577 nM | TGI (NCI-H226 lung): 6560 nM | GI50 (DU-145 prostate): 2420 nM | TGI (DU-145 prostate): > 100000 nM
